Test results taken from patent US20130072430A1, “METHODS FOR TREATMENT OR PROPHYLAXIS OF KIDNEY OR LIVER DYSFUNCTION” (NPS PHARMACEUTICALS, INC., priority 2010, published 2013).

Test system: Human patients with short bowel syndrome
Experiment: Example 2: liver biomarkers (albumin, gamma glutamyl transferase, total bilirubin, ALT, AST, ALP) in short bowel syndrome patients, every four weeks for 24 weeks
Format: in vivo
Settings: 0.05 mg/kg/d; for Gamma Glutamyl Transferase Change from Baseline, Median / Gamma Glutamyl Transferase Observed Value, Mean / Gamma Glutamyl Transferase Observed Value, Median / ALKALINE PHOSPHATASE Change from Baseline, Median / ALT Change from Baseline, Mean / ALT Change from Baseline, Median / ALT Observed Value, Mean / ALT Observed Value, Median / AST Change from Baseline, Mean / AST Change from Baseline, Median / AST Observed Value, Mean / AST Observed Value, Median / Albumin Change from Baseline, Mean / Albumin Change from Baseline, Median / Albumin Observed Value, Mean / Albumin Observed Value, Median / Alkaline Phosphatase Change from Baseline, Mean / Alkaline Phosphatase Observed Value, Mean / Alkaline Phosphatase Observed Value, Median / Bilirubin Change from Baseline, Mean / Bilirubin Change from Baseline, Median / Bilirubin Observed Value, Mean / Bilirubin Observed Value, Median / Gamma Glutamyl Transferase Change from Baseline, Mean: n=40; for ALT >10% decrease from Baseline, % of subjects / ALT >10% decrease from Baseline, n subjects / ALT >10% increase from Baseline, % of subjects / ALT >10% increase from Baseline, n subjects / ALT Within 10% of Baseline, % of subjects / ALT Within 10% of Baseline, n subjects / AST >10% decrease from Baseline, % of subjects / AST >10% decrease from Baseline, n subjects / AST >10% increase from Baseline, % of subjects / AST >10% increase from Baseline, n subjects / AST Within 10% of Baseline, % of subjects / AST Within 10% of Baseline, n subjects / Albumin >10% decrease from Baseline, % of subjects / Albumin >10% decrease from Baseline, n subjects / Albumin >10% increase from Baseline, % of subjects / Albumin >10% increase from Baseline, n subjects / Albumin Within 10% of Baseline, % of subjects / Albumin Within 10% of Baseline, n subjects / Alkaline Phosphatase >10% decrease from Baseline, % of subjects / Alkaline Phosphatase >10% decrease from Baseline, n subjects / Alkaline Phosphatase >10% increase from Baseline, % of subjects / Alkaline Phosphatase >10% increase from Baseline, n subjects / Alkaline Phosphatase Within 10% of Baseline, % of subjects / Alkaline Phosphatase Within 10% of Baseline, n subjects / Bilirubin >10% decrease from Baseline, % of subjects / Bilirubin >10% decrease from Baseline, n subjects / Bilirubin >10% increase from Baseline, % of subjects / Bilirubin >10% increase from Baseline, n subjects / Bilirubin Within 10% of Baseline, % of subjects / Bilirubin Within 10% of Baseline, n subjects: m=40
Experimental: To further confirm the results of Example 1, a further study was conducted involving more individuals and additional diagnostic biomarkers. Human patients with short bowel syndrome were divided into two groups: a control group (43 total individuals) to receive placebo, and an experimental group (42 total individuals) to receive teduglutide at 0.05 mg/kg/day throughout the study. Patients were treated by subcutaneous injection of placebo or the appropriate dose of teduglutide. Known biomarkers of liver function were monitored every four weeks, for 24 weeks. The liver biomarkers tested included albumin, gamma glutamyl transferase, total bilirubin, ALT and AST and ALP. Before administration of placebo or teduglutide, diagnostic biomarker levels were tested to establish a baseline for each individual.
To determine the effect of GLP-2 on the levels of the diagnostic biomarkers, the average level of each biomarker was measured for the placebo and teduglutide treated groups for each visit. Furthermore, the average change from baseline was calculated using the established baseline values. For FIGS. 17-28, p-values were calculated using the t-test.
P values are provided, which were calculated for each distribution of biomarker changes for each week using the chi-squared test.

Structure (SMILES): CC[C@H](C)[C@H](NC(=O)[C@H](Cc1ccccc1)NC(=O)[C@H](CC(=O)O)NC(=O)[C@H](CCCNC(=N)N)NC(=O)[C@H](C)NC(=O)[C@H](C)NC(=O)[C@H](CC(C)C)NC(=O)[C@H](CC(N)=O)NC(=O)[C@H](CC(=O)O)NC(=O)[C@H](CC(C)C)NC(=O)[C@@H](NC(=O)[C@@H](NC(=O)[C@H](CC(N)=O)NC(=O)[C@H](CCSC)NC(=O)[C@H](CCC(=O)O)NC(=O)[C@H](CC(=O)O)NC(=O)[C@H](CO)NC(=O)[C@H](Cc1ccccc1)NC(=O)[C@H](CO)NC(=O)CNC(=O)[C@H](CC(=O)O)NC(=O)CNC(=O)[C@@H](N)Cc1c[nH]cn1)[C@@H](C)O)[C@@H](C)CC)C(=O)N[C@@H](CC(N)=O)C(=O)N[C@@H](Cc1c[nH]c2ccccc12)C(=O)N[C@@H](CC(C)C)C(=O)N[C@H](C(=O)N[C@@H](CCC(N)=O)C(=O)N[C@H](C(=O)N[C@@H](CCCCN)C(=O)N[C@H](C(=O)N[C@H](C(=O)N[C@@H](CC(=O)O)C(=O)O)[C@@H](C)O)[C@@H](C)CC)[C@@H](C)O)[C@@H](C)CC [teduglutide]
- Gamma Glutamyl Transferase Change from Baseline, Median (Week 2): 2.5 U/L
- Gamma Glutamyl Transferase Observed Value, Mean (Week 2): 84.6 U/L
- Gamma Glutamyl Transferase Observed Value, Median (Week 2): 52.5 U/L
- ALT >10% decrease from Baseline, % of subjects (Week 4): (65.0%)
- ALT >10% decrease from Baseline, n subjects (Week 4): 26
- ALT >10% increase from Baseline, % of subjects (Week 4): (15.0%)
- ALT >10% increase from Baseline, n subjects (Week 4): 6
- ALT Within 10% of Baseline, % of subjects (Week 4): (20.0%)
- ALT Within 10% of Baseline, n subjects (Week 4): 8
- AST >10% decrease from Baseline, % of subjects (Week 4): (65.0%)
- AST >10% decrease from Baseline, n subjects (Week 4): 26
- AST >10% increase from Baseline, % of subjects (Week 4): (20.0%)
- AST >10% increase from Baseline, n subjects (Week 4): 8
- AST Within 10% of Baseline, % of subjects (Week 4): (15.0%)
- AST Within 10% of Baseline, n subjects (Week 4): 6
- Albumin >10% decrease from Baseline, % of subjects (Week 4): (7.5%)
- Albumin >10% decrease from Baseline, n subjects (Week 4): 3
- Albumin >10% increase from Baseline, % of subjects (Week 4): (5.0%)
- Albumin >10% increase from Baseline, n subjects (Week 4): 2
- Albumin Within 10% of Baseline, % of subjects (Week 4): (87.5%)
- Albumin Within 10% of Baseline, n subjects (Week 4): 35
- Alkaline Phosphatase >10% decrease from Baseline, % of subjects (Week 4): (55.0%)
- Alkaline Phosphatase >10% decrease from Baseline, n subjects (Week 4): 22
- Alkaline Phosphatase >10% increase from Baseline, % of subjects (Week 4): (5.0%)
- Alkaline Phosphatase >10% increase from Baseline, n subjects (Week 4): 2
- Alkaline Phosphatase Within 10% of Baseline, % of subjects (Week 4): (40.0%)
- Alkaline Phosphatase Within 10% of Baseline, n subjects (Week 4): 16
- Bilirubin >10% decrease from Baseline, % of subjects (Week 4): (47.5%)
- Bilirubin >10% decrease from Baseline, n subjects (Week 4): 19
- Bilirubin >10% increase from Baseline, % of subjects (Week 4): (35.0%)
- Bilirubin >10% increase from Baseline, n subjects (Week 4): 14
- Bilirubin Within 10% of Baseline, % of subjects (Week 4): (17.5%)
- Bilirubin Within 10% of Baseline, n subjects (Week 4): 7
- ALKALINE PHOSPHATASE Change from Baseline, Median (Week 4): −15.5 U/L
- ALT Change from Baseline, Mean (Week 4): −9.2 U/L
- ALT Change from Baseline, Median (Week 4): −7 U/L
- ALT Observed Value, Mean (Week 4): 34.9 U/L
- ALT Observed Value, Median (Week 4): 29 U/L
- AST Change from Baseline, Mean (Week 4): −3.5 U/L
- AST Change from Baseline, Median (Week 4): −5 U/L
- AST Observed Value, Mean (Week 4): 29.1 U/L
- AST Observed Value, Median (Week 4): 26.5 U/L
- Albumin Change from Baseline, Mean (Week 4): -0.7 g/L
- Albumin Change from Baseline, Median (Week 4): -1 g/L
- Albumin Observed Value, Mean (Week 4): 41.7 g/L
- Albumin Observed Value, Median (Week 4): 42 g/L
- Alkaline Phosphatase Change from Baseline, Mean (Week 4): −20.5 U/L
- Alkaline Phosphatase Observed Value, Mean (Week 4): 115.8 U/L
- Alkaline Phosphatase Observed Value, Median (Week 4): 101 U/L
- Bilirubin Change from Baseline, Mean (Week 4): -1.10 µmol/L
- Bilirubin Change from Baseline, Median (Week 4): -1.5 µmol/L
- Bilirubin Observed Value, Mean (Week 4): 11.31 µmol/L
- Bilirubin Observed Value, Median (Week 4): 9.55 µmol/L
- Gamma Glutamyl Transferase Change from Baseline, Mean (Week 4): 1.7 U/L
- Gamma Glutamyl Transferase Change from Baseline, Median (Week 4): −0.5 U/L
- Gamma Glutamyl Transferase Observed Value, Mean (Week 4): 78.9 U/L
- Gamma Glutamyl Transferase Observed Value, Median (Week 4): 53.5 U/L
- ALT >10% decrease from Baseline, % of subjects (Week 8): (65.0%)
- ALT >10% decrease from Baseline, n subjects (Week 8): 26
- ALT >10% increase from Baseline, % of subjects (Week 8): (17.5%)
- ALT >10% increase from Baseline, n subjects (Week 8): 7
- ALT Within 10% of Baseline, % of subjects (Week 8): (17.5%)
- ALT Within 10% of Baseline, n subjects (Week 8): 7
- AST >10% decrease from Baseline, % of subjects (Week 8): (60.0%)
- AST >10% decrease from Baseline, n subjects (Week 8): 24
- AST >10% increase from Baseline, % of subjects (Week 8): (20.0%)
- AST >10% increase from Baseline, n subjects (Week 8): 8
- AST Within 10% of Baseline, % of subjects (Week 8): (20.0%)
- AST Within 10% of Baseline, n subjects (Week 8): 8
- Albumin >10% decrease from Baseline, % of subjects (Week 8): (2.5%)
- Albumin >10% decrease from Baseline, n subjects (Week 8): 1
- Albumin >10% increase from Baseline, % of subjects (Week 8): (2.5%)
- Albumin >10% increase from Baseline, n subjects (Week 8): 1
- Albumin Within 10% of Baseline, % of subjects (Week 8): (95.0%)
- Albumin Within 10% of Baseline, n subjects (Week 8): 38
- Alkaline Phosphatase >10% decrease from Baseline, % of subjects (Week 8): (62.5%)
- Alkaline Phosphatase >10% decrease from Baseline, n subjects (Week 8): 25
- Alkaline Phosphatase >10% increase from Baseline, % of subjects (Week 8): (5.0%)
- Alkaline Phosphatase >10% increase from Baseline, n subjects (Week 8): 2
- Alkaline Phosphatase Within 10% of Baseline, % of subjects (Week 8): (32.5%)
- Alkaline Phosphatase Within 10% of Baseline, n subjects (Week 8): 13
- Bilirubin >10% decrease from Baseline, % of subjects (Week 8): (50.0%)
- Bilirubin >10% decrease from Baseline, n subjects (Week 8): 20
- Bilirubin >10% increase from Baseline, % of subjects (Week 8): (25.0%)
- Bilirubin >10% increase from Baseline, n subjects (Week 8): 10
- Bilirubin Within 10% of Baseline, % of subjects (Week 8): (25.0%)
- Bilirubin Within 10% of Baseline, n subjects (Week 8): 10
- ALKALINE PHOSPHATASE Change from Baseline, Median (Week 8): −18.5 U/L
- ALT Change from Baseline, Mean (Week 8): −10.2 U/L
- ALT Change from Baseline, Median (Week 8): −5.5 U/L
- ALT Observed Value, Mean (Week 8): 33.9 U/L
- ALT Observed Value, Median (Week 8): 26 U/L
- AST Change from Baseline, Mean (Week 8): −5.1 U/L
- AST Change from Baseline, Median (Week 8): −5 U/L
- AST Observed Value, Mean (Week 8): 27.5 U/L
- AST Observed Value, Median (Week 8): 23.5 U/L
- Albumin Change from Baseline, Mean (Week 8): -0.7 g/L
- Albumin Change from Baseline, Median (Week 8): -1 g/L
- Albumin Observed Value, Mean (Week 8): 41.7 g/L
- Albumin Observed Value, Median (Week 8): 42 g/L
- Alkaline Phosphatase Change from Baseline, Mean (Week 8): −24.3 U/L
- Alkaline Phosphatase Observed Value, Mean (Week 8): 112.0 U/L
- Alkaline Phosphatase Observed Value, Median (Week 8): 94 U/L
- Bilirubin Change from Baseline, Mean (Week 8): -1.60 µmol/L
- Bilirubin Change from Baseline, Median (Week 8): -0.95 µmol/L
- Bilirubin Observed Value, Mean (Week 8): 10.81 µmol/L
- Bilirubin Observed Value, Median (Week 8): 7.75 µmol/L
- Gamma Glutamyl Transferase Change from Baseline, Mean (Week 8): −5.7 U/L
